Converted amounts (≈) assume the structure as drawn. Read-outs that look alike come from different tables or passages of the source.
How the values were obtained:
Type in all cases: cell-based
[1] = test system: E. coli TG1/pUC21; assay: MIC of amino acids and analogues on M9 agar, control strain TG1/pUC21; conditions: for MIC: Escherichia coli
Procedure: (§1) Therefore, the effect of the pYEAS, pYAHN, PYFIK, and pYGGA plasmids on susceptibility of the strain TG1 to some amino acids and amino acid analogues was tested. Overnight cultures of the E. coli strains TG1/pYEAS, TG1/pYAHN, TG1/pYFIK, TG1/pYGGA and of the control strains TG1/pUC21, TG1/pUC19 and TG1/pOK12 grown in M9 minimal medium with an appropriate antibiotic on a rotary shaker (10^9 cfu/ml) were diluted 1:100 in M9 minimal medium and grown for 5 h in the same medium. Then the log phase cultures thus obtained were diluted and about 10^4 alive cells were applied to well-dried test plates with M9 agar containing doubling increments of amino acids or analogues. Thus the minimum inhibition concentration (MIC) of these compounds were examined.

[2] = test system: E. coli TG1/pYAHN; assay: microbe, parasite or virus in culture; conditions: for MIC: Escherichia coli, TG1/PYAHN, read-out: MIC (μg/ml) for E. coli TG1, harboring the plasmid pYAHN
Excerpt: as §1, with “The homology of the yeaS, yfiK, yahN and yggA gene products with the lysine transporter, LysE, of Corynebacterium glutamicum (Vrljic et al., Mol. Microbiol.,22, 815-826, 1996) and RhtB protein involved in homoserine excretion, indicates the analogues function for these proteins. It is well known that the increased expression of the genes involved in antibiotic and heavy metal efflux increases the level of resistance to the drugs (Nikaido, H. J. Bacteriology, 178, 5853-5859, 1996). Therefore,” for “Therefore,”

[3] = test system: E. coli TG1/pYEAS; assay: microbe, parasite or virus in culture; conditions: for MIC: Escherichia coli, TG1/PYEAS, read-out: MIC (μg/ml) for E. coli TG1, harboring the plasmid pYEAS
Excerpt: as §1, with “The homology of the yeaS, yfiK, yahN and yggA gene products with the lysine transporter, LysE, of Corynebacterium glutamicum (Vrljic et al., Mol. Microbiol.,22, 815-826, 1996) and RhtB protein involved in homoserine excretion, indicates the analogues function for these proteins. It is well known that the increased expression of the genes involved in antibiotic and heavy metal efflux increases the level of resistance to the drugs (Nikaido, H. J. Bacteriology, 178, 5853-5859, 1996). Therefore,” for “Therefore,”

[4] = test system: E. coli TG1/pYFIK; assay: microbe, parasite or virus in culture; conditions: for MIC: Escherichia coli, TG1/PYFIK, read-out: MIC (μg/ml) for E. coli TG1, harboring the plasmid pYFIK
Excerpt: as §1, with “The homology of the yeaS, yfiK, yahN and yggA gene products with the lysine transporter, LysE, of Corynebacterium glutamicum (Vrljic et al., Mol. Microbiol.,22, 815-826, 1996) and RhtB protein involved in homoserine excretion, indicates the analogues function for these proteins. It is well known that the increased expression of the genes involved in antibiotic and heavy metal efflux increases the level of resistance to the drugs (Nikaido, H. J. Bacteriology, 178, 5853-5859, 1996). Therefore,” for “Therefore,”

[5] = test system: E. coli TG1/pYGGA; assay: microbe, parasite or virus in culture; conditions: for MIC: Escherichia coli, TG1/PYGGA, read-out: MIC (μg/ml) for E. coli TG1, harboring the plasmid pYGGA
Excerpt: as §1, with “The homology of the yeaS, yfiK, yahN and yggA gene products with the lysine transporter, LysE, of Corynebacterium glutamicum (Vrljic et al., Mol. Microbiol.,22, 815-826, 1996) and RhtB protein involved in homoserine excretion, indicates the analogues function for these proteins. It is well known that the increased expression of the genes involved in antibiotic and heavy metal efflux increases the level of resistance to the drugs (Nikaido, H. J. Bacteriology, 178, 5853-5859, 1996). Therefore,” for “Therefore,”

[6] = E. coli TG1 harboring pUC21 (control vector), M9 agar, doubling increments, read-out: MIC (μg/ml) for E. coli TG1, harboring the plasmid pUC21

SMILES | MIC [1, 6] [µg/mL] | MIC [2] [µg/mL] | MIC [3] [µg/mL] | MIC [4] [µg/mL] | MIC [5] [µg/mL] | MIC (μg/ml) for E. coli TG1, harboring the plasmid pUC21 ([1]; E. coli TG1 harboring pUC21 (control vector), M9 agar, doubling increments) [μg/ml] | MIC (μg/ml) for E. coli TG1, harboring the plasmid pYAHN ([2]; E. coli TG1 harboring pYAHN (multicopy yahN), M9 agar, doubling increments) [μg/ml] | MIC (μg/ml) for E. coli TG1, harboring the plasmid pYEAS ([3]; E. coli TG1 harboring pYEAS (multicopy yeaS), M9 agar, doubling increments) [μg/ml] | MIC (μg/ml) for E. coli TG1, harboring the plasmid pYFIK ([4]; E. coli TG1 harboring pYFIK (multicopy yfiK), M9 agar, doubling increments) [μg/ml] | MIC (μg/ml) for E. coli TG1, harboring the plasmid pYGGA ([5]; E. coli TG1 harboring pYGGA (multicopy yggA), M9 agar, doubling increments) [μg/ml] | MIC ([1]; TG1/PUC21, read-out: MIC (μg/ml) for E. coli TG1, harboring the plasmid pUC21) [µg/mL]
CN(C)CC(N)C(=O)O (racemic) [4-aza-DL-leucine] | 100 | 100 (≈ 0.757 mM) | 100 (≈ 0.757 mM) | 100 (≈ 0.757 mM) | 100 (≈ 0.757 mM) | – | – | – | – | – | –
NCCSC[C@H](N)C(=O)O [AEC, S-(2-aminoethyl)-L-cysteine] | 5 | 5 (≈ 0.0304 mM) | 5 (≈ 0.0304 mM) | 10 (≈ 0.0609 mM) | 200 (≈ 1.22 mM) | – | – | – | – | – | –
CCC(O)C(N)C(=O)O (stereo not drawn) [AHVA, α-amino-β-hydroxyvaleric-acid] | 100 | 100 (≈ 0.751 mM) | 100 (≈ 0.751 mM) | 200 (≈ 1.5 mM) | 100 (≈ 0.751 mM) | – | – | – | – | – | –
N=C(N)NCCC[C@H](N)C(=O)O [L-arginine] | 10000 | 10000 (≈ 57.4 mM) | 10000 (≈ 57.4 mM) | 10000 (≈ 57.4 mM) | 20000 (≈ 115 mM) | – | – | – | – | – | –
N[C@@H](CCC(=O)O)C(=O)[O-].[Na+] [L-glutamate (Na salt)] | – | – | – | – | – | 5000 | 5000 | 20000 | 10000 | 5000 | –
N[C@@H](Cc1c[nH]cn1)C(=O)O [L-histidine] | 5000 | 5000 (≈ 32.2 mM) | 30000 (≈ 193 mM) | 10000 (≈ 64.5 mM) | 5000 (≈ 32.2 mM) | – | – | – | – | – | –
N[C@@H](CCO)C(=O)O [L-homoserine] | 500 | 500 (≈ 4.2 mM) | 1000 (≈ 8.39 mM) | 1000 (≈ 8.39 mM) | 500 (≈ 4.2 mM) | – | – | – | – | – | –
NCCCC[C@H](N)C(=O)O [L-lysine] | – | 5000 (≈ 34.2 mM) | 7500 (≈ 51.3 mM) | 7500 (≈ 51.3 mM) | 15000 (≈ 103 mM) | – | – | – | – | – | 5000
O=C(O)[C@@H]1CCCN1 [L-proline] | 1000 | 2000 (≈ 17.4 mM) | 2000 (≈ 17.4 mM) | 5000 (≈ 43.4 mM) | 1000 (≈ 8.69 mM) | – | – | – | – | – | –
C[C@@H](O)[C@H](N)C(=O)O [L-threonine] | 30000 | 30000 (≈ 252 mM) | 50000 (≈ 420 mM) | 40000 (≈ 336 mM) | 30000 (≈ 252 mM) | – | – | – | – | – | –
CC(C)[C@H](N)C(=O)O [L-valine] | 0.5 | 0.5 (≈ 0.00427 mM) | 0.5 (≈ 0.00427 mM) | 0.5 (≈ 0.00427 mM) | 0.5 (≈ 0.00427 mM) | – | – | – | – | – | –
CCC(N)C(=O)O (stereo not drawn) [α-aminobutyric acid] | 2500 | 2500 (≈ 24.2 mM) | > 10000 | 5000 (≈ 48.5 mM) | 2500 (≈ 24.2 mM) | – | – | – | – | – | –

— patent publication US6979560B1, “Eschericha bacteria overexpressing the yahn gene for feedback-insensitive amino acid production” (priority 1998, dated 2005)
